Results on two compounds are retold here after US10682339B2, “Pharmaceutical compositions directly targeting FKBP52 for the treatment of prostate cancer and methods of using same” (THE BOARD OF REGENTS OF THE UNIVERSITY OF TEXAS SYSTEM, priority 2014, dated 2020).

Assay [1] has as its system LNCaP prostate cancer cells. Description: ELISA of androgen-dependent PSA secretion from LNCaP cells. Type of assay: cell-based. The settings on record: preliminary. As to the method: (§1) FIG. 3. The FKBP52-specific inhibitor GMC1 inhibits AR and GR activity. (A) Representative AR- and GR-mediated luciferase reporter assays in MDA-kb2 cells with a range of GMC1 concentrations. The average IC50 from 4 independent experiments are shown. (B) A representative luciferase reporter assay in 52KO mouse embryonic fibroblast cells in the presence or absence of FKBP52 were performed. Transfected cells were treated with DHT and a range of concentrations of GMC1 and assessed for AR-dependent expression of a luciferase reporter. The average IC50 of 3 independent assays is shown. (C-D) ELISA assays measuring androgen-dependent PSA secretion form LNCaP (C) and 22Rv1 (D) prostate cancer cells treated with the indicated concentrations of GMC1.

Assay [2] concerns AR. Kind of assay: AR-mediated luciferase reporter assay in MDA-kb2 cells. In kind it is cell-based. The settings on record: among 40 hits from the virtual screen. As to the method: as §1
Background: A reporter such as luciferase makes a cellular process visible.

The subject of assay [3] is FKBP52-regulated AR activity. Kind of assay: AR-dependent luciferase reporter assay in 52KO mouse embryonic fibroblast cells with or without FKBP52. In kind it is cell-based. The settings on record: 52KO MEF cells, DHT treated. As to the method:
as §1

The test system of assay [4] is 22Rv1 prostate cancer cells. Description: ELISA of PSA secretion from 22Rv1 cells in the presence and absence of hormone. In kind it is cell-based. Conditions: for inhibition of hormone-independent PSA secretion (ELISA): absence of hormone. As to the method:
as §1
(§2) FIG. 4. GMC1 inhibits hormone-dependent and +independent PSA secretion and hormone dependent proliferation in 22Rv1 prostate cancer cells. (A) ELISA assay in 22Rv1 cells measuring GMC1 effects on PSA secretion in the presence and absence of hormone. (B) qPCR assay in 22Rv1 cells measuring endogenous PSA gene expression in the presence or absence of hormone. For comparison, GMC1, but not MJC13, inhibits hormone-independent PSA secretion and/or expression. (C) A BrdU incorporation assay was used to assess GMC1 effects on hormone-dependent 22Rv1 cell proliferation.
On the technique in general: In an ELISA, binding on a coated surface is turned into a signal by an enzyme label.

The test system of assay [5] is 22Rv1 prostate cancer cells. Description: qPCR of endogenous PSA gene expression in 22Rv1 cells. Type of assay: cell-based. The settings on record: absence of hormone.
From the text: as §2
Background: In qPCR the cycle at which signal appears reflects the starting amount.

For assay [6], the system named is GR. Kind of assay: GR-mediated luciferase reporter assay in MDA-kb2 cells. Type of assay: cell-based. As to the method: as §1
Assay [7] relates to 22Rv1 prostate cancer cells. Kind of assay: BrdU incorporation assay of hormone-dependent 22Rv1 cell proliferation. Type of assay: cell-based. Conditions: 22Rv1 cells.
From the text: as §2

Assay [8] concerns human prostate cancer cell lines. The settings on record: cited from earlier work.
For assay [9], the system named is prostate cancer xenograft. Conditions: prostate cancer xenograft model; preliminary preclinical studies; cited from earlier work.
Assay [10] has as its target T1, β-catenin interaction with AR (Homo sapiens, UniProt P10275).
T1 sequence (P10275 1-920): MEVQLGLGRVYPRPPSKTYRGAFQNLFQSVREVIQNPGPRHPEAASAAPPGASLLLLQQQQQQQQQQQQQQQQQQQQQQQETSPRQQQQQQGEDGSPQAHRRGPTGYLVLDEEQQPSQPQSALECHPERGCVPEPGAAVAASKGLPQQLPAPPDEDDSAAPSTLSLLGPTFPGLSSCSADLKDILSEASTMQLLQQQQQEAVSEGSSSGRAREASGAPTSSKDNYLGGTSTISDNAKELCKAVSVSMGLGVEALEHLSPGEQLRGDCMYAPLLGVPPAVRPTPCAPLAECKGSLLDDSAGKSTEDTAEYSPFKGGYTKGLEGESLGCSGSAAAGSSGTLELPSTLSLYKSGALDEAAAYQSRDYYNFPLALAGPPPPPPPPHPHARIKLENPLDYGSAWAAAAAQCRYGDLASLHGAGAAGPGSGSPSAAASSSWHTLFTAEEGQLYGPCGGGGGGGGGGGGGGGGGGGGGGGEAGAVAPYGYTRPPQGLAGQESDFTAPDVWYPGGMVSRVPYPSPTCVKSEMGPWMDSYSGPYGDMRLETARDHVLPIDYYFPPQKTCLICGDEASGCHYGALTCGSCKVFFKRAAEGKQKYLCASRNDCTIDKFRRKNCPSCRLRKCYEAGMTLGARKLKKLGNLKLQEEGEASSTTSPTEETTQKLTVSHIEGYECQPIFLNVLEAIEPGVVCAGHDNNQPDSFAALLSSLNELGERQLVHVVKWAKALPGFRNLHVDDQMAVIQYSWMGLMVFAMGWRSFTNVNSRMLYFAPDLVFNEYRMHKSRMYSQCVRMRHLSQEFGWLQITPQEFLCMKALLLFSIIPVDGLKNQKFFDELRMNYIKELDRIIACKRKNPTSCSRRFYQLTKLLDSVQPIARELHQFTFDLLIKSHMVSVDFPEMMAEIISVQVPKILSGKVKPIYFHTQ
Kind of assay: β-catenin interaction with AR. The settings on record: targeting to the AR BF3 surface. From the text:
MJC13 is described as an inhibitor of FKBP52-regulated AR activity (De Leon et. al. 2011. PNAS. 108 (29): 11878-83) by targeting the AR BF3 surface. A novel mechanism is disclosed by which FKBP52 and β-catenin interact to co-regulate AR activity in prostate cancer cells. […] Specific small molecules docked within the PPIase pocket affect proline-rich loop conformation and interactions. […] Thus, small molecules predicted to target the FKBP52 PPIase pocket have been identified in the disclosed embodiments.

The mark [11] stands for this setting: variety of human prostate cancer cell lines.

Each structure is given as a SMILES string.

Consider `COc1ccc(/C=N/NC(=O)CSc2nc3ccccc3[nH]2)cc1` [GMC1, 2-(1H-benzimidizol-2-ylsulfanyl)-N—[(Z)-(4methoxyphenyl)methylideneamino]acetamide], for which the “inhibition of AR-dependent PSA expression (ELISA)” value in assay [1] is “inhibits”. The “inhibition of AR-mediated reporter gene expression” value in assay [2] is recorded as “most potent inhibition”. For the same compound, the “inhibition of FKBP52-regulated AR activity (effective concentration range)” value in [3] was “high nanomolar range”. Moreover, the “inhibition of hormone-independent PSA secretion (ELISA)” value in [4] is “inhibits”. Besides, the “inhibition of AR-dependent (hormone-dependent) PSA expression/secretion (ELISA)” value in assay [4] (with hormone) was “inhibits”. In addition, the “inhibition of hormone-independent PSA gene expression (qPCR)” value in assay [5] is given as “inhibits”. The “inhibition of FKBP52-regulated GR activity (effective concentration range)” value in assay [6] is “high nanomolar range”. In assay [7], the “inhibition of hormone dependent proliferation (BrdU incorporation)” value is “inhibits”.

As for `O=C(Nc1cccc(Cl)c1Cl)C1CCCCC1` [MJC13], in [8], the “effective drug concentrations (AR BF3 surface targeting)” value is “low micromolar range”. In addition, in [8] (setting [11]), the “block of AR signaling” value is “effectively block” and the “block of AR-dependent cancer cell proliferation” value is on record as “effectively block”. In addition, the “effects on tumor growth” value in assay [9] is recorded as “impressive effects on tumor growth”. In addition, the “inhibition of hormone-independent PSA secretion (ELISA)” value in assay [4] is reported as “not”. The “inhibition of hormone-independent PSA gene expression (qPCR)” value in assay [5] was “not”. The “effect on β-catenin interaction with AR” value in assay [10] is recorded as “abrogates”.
